Measured values reported in patent US20240050449A1, “Use of Acetyltanshinone IIA in Preparation of Medicament for Treating Lung Cancer and Medicament for Treating Lung Cancer” (UNIVERSITY OF MACAU, priority 2022, published 2024).

How the values were obtained:
[1] = system: H1975 cells; experiment: MTT cell viability assay, H1975 cells; type: cell-based
Method: Cells were seeded at a density of 3×10^3 per well in 96-well plates, allowed to attach overnight, and treated with various concentrations of agent. After 72 h of treatment, 10 μL of MTT solution (5 mg/mL) was added to each well and cultured in the plate for 4 h. The crystallized formazan was dissolved in 100 μL of 10% (w/v) SDS and 0.01 mol/L HCl solution for 24 h, and then the value was read by spectrophotometry at 595 nm using a microplate reader.

[2] = Body weight, deaths and toxicity in the xenograft study; conditions: 25 mg/kg intraperitoneally every 3 days for 31 days
Method: Cell line xenograft experiments were performed in 6-week-old female nude mice, 4×10^6 A549 cells were mixed 1:1 with matrigel-basement membrane matrix (Corning) and injected subcutaneously into nude mice. Tumors were allowed to grow to around […] and mice were randomly selected to receive treatment with ATA (25 mg/kg) or Erlotinib (25 mg/kg) intraperitoneally every 3 days for 31 days. ATA was formulated with 25% ethanol, 60% PEG300 (Sigma-Aldrich), and 15% Tween 80 (Sigma-Aldrich). Erlotinib was formulated in 5% DMSO, 30% PEG300, 5% Tween 80 and 60% H2O. Mouse body weight and tumor volume were measured every 3 days by a scale and caliper. Tumor volume (mm^3) was calculated using the formula. π/6×length (mm)×[width (mm)]^2. At least 6 mice in the control and treatment groups were evaluated during the study. All mice were sacrificed after 31 days of drug treatment, tumors were collected, and tumor weights were recorded. All animal studies were conducted in accordance with the requirements of the Animal Research Ethics Committee of Macao University and in compliance with all relevant ethical requirements.
To determine if ATA could also produce the same effect in vivo, this example injected A549 cells subcutaneously into nude mice to form tumor xenografts. Mice were randomly assigned to three groups. When the size of each tumor increased to a volume of approximately 100 mm^3, mice were injected intraperitoneally with vehicle control, ATA (25 mg/kg), or Erlotinib (25 mg/kg) every 3 days for 31 days. The tumor size and body weight of each mouse were measured every 3 days until the end of the animal experiment on day 31.

[3] = system: A549 cells; experiment: Colony formation (cloning experiment), A549 cells; type: cell-based; conditions: 0.125 μM, 10 days
Method: (§1) Cells were seeded at a density of 1×10^3 per well in 6-well plates and cultured for 24 h. The cells were treated with medicament or DMSO for 10 days, after which the cells were washed once with 1×PBS, fixed with 4% paraformaldehyde for 20 min, and stained with 0.1% crystal violet for 15 min. The stained cells in each well were imaged and the number of colonies in each well was quantified using ImageJ software.

[4] = system: H1650 cells; experiment: Spheroid formation experiment, H1650 cells
[5] = system: all four drug-resistant cell lines (A549, H358, H1975, H1650); experiment: Colony formation, all four drug-resistant cell lines; type: cell-based; conditions: 1 μM, 10 days
Method: as §1

[6] = system: p70S6K, AURKA, MET, S6RP and EGFR protein levels; experiment: Western blot time course of protein reduction in A549 and H1650 cells; type: cell-based; conditions: 2 μM
Method: Cells were washed once with PBS and frozen in RIPA lysis buffer containing protease and phosphatase inhibitors (Sigma-Aldrich) for 30 min. After sonication and centrifugation, the total protein concentration was determined by protein assay using Bio-Rad concentrated dye reagent (Bio-Rad). Equal amounts of protein ([…]) from each sample were separated by SDS-PAGE and electrotransferred to nitrocellulose membranes (GE Healthcare). Detection was performed on the membrane with a 1:1000 dilution of specific primary antibody followed by incubation with a 1:2000 dilution of the HRP conjugated secondary antibody. Finally, immunoreactivity is detected with a chemiluminescent substrate (Clarity Western ECL substrate; Bio-Rad). EGFR (#4267S), MET (#8198S), p-Akt (#9271L), akt (#9272S), p-mTOR (#5536S), mTOR (#2983S), p-p70S6K (#9234S), p70S6K (#2708S), p-S6RP (#4857S), S6RP (#2217S), p-4E-BP1 (#9455S) antibodies. 4E-BP1 (#9644S), p53 (#2527S), p21 waf1/Cip1 (#2947S), survivin (#2808S), cyclin B1 (#12231S), cyclin D3 (#2936S) and GAPDH (#2118S) were purchased from Cell Signaling Technology. Aurora A (#ab13824) and PLK1 (#ab189139) antibodies were from Abcam.
In FIGS. 7, A549 and H1650 cells were treated with ATA (2 μM) for 6, 12, 24, 36, and 48 h, and the protein levels of p70S6K, AURKA, MET, S6RP, and EGFR at each time point were determined by Western blot analysis as shown in (A), and the quantified protein levels are shown in (B). […] (D) is protein levels of p70S6K, p-p70S6K, S6RP, p-S6RP, p21, cyclin D3, AURKA, PLK1, cyclin B1, survivin, EGFR, and MET determined by Western blot analysis for A549 and H1650 cells treated with 10 nM p70S6K siRNA and siRNA negative control for 48 h. (E) is cell viability measured by MTT test for A549 and H1650 cells treated with 10 nM p70S6K siRNA and the negative control siRNA for 48 h. ****P<0.0001 was based on a one-way analysis of variance followed by Tukey's multiple comparison test. (F) It is protein levels of p21, cyclin D3, AURKA, PLK1, cyclin B1, survivin, EGFR, and MET determined by Western blot analysis for A549 and H1650 cells treated with LY294002 (2 μM), PF-4708671 (2 μM), rapamycin (2 μM) and ATA (2 μM) for 48 h. (G) is expression levels of EGFR, MET, p-p70S6K, p70S6K, p-S6RP, S6RP, p21, cyclin D3, AURKA, PLK1, cyclin B1 and survivin in fibroblast HDF, A549 and H1650 cells determined by Western blot analysis, respectively. Statistical data are expressed as the mean SD of three independent experiments.

[7] = system: H358 cells; experiment: Colony formation (cloning experiment), H358 cells; type: cell-based; conditions: 10 days
Method: as §1

CC(=O)Oc1c(OC(C)=O)c2c(C)coc2c2ccc3c(c12)CCCC3(C)C [ATA, acetyltanshinone IIA]
IC50 ratio of Erlotinib/ATA [1]: 6 | IC50 ([1]; MTT, 72 h): 1760 ± 20 nM | deaths during the treatment period [2]: no mice died | toxicity in nude mice [2]: no significant toxicity | weight of nude mice compared between groups [2]: no difference | reduction of colony-forming capacity [3]: 42% | spheroid growth / sphere size ([4]; 2 μM, 0 to 8 days): completely inhibited | spheroid formation ([4]; both 1 and 2 μM): strongly inhibited | inhibition of colony formation compared with Erlotinib and Osimertinib [5]: much more effectively than Erlotinib and Osimertinib | time at which AURKA protein decreased [6]: 12 h | time at which EGFR protein decreased [6]: 48 to 72 h | time at which MET protein decreased [6]: 24 h | time at which S6RP protein decreased [6]: 36 h | time at which p70S6K protein decreased [6]: 6 h | inhibition of colony formation ([7]; 0.125 μM): almost completely inhibited | colony formation inhibition compared with Afatinib ([7]; 1 μM): significantly higher colony formation inhibition than Afatinib
